Data set [1] is described as follows: MTT cytotoxicity assay, HepG2. The settings on record: human, HepG2 cells, 0.064 to 40 μM. Type of data set: cell-based. On the procedure:
(§1) Compounds 1–6 were tested for the cytotoxicity against six cell lines, including five human cancer cell lines (HepG2, Hep3B, HT-29, HeLa, and OCVAR) and the normal liver cell LO2.
(§2) Compounds 1–6 were evaluated for the cytotoxicity against five human cancer cell lines and normal LO2, including OCVaR, HepG2, HeLa, HT-29, and Hep3B, by a previously reported method The tested cells were purchased from the Cell Bank of Chinese Academy of Science, Shanghai, China. For all cell lines, 5000 cells/ well were seeded into 96-well plates (n = 3) and cultured for 18 h, then exposed to the test compounds at concentrations ranging from 0.064 to 40 μM for 48 h, with cis-platin as the positive control. Briefly, 10 μL/well of MTT was added and cultured for another 4 h before removing medium and adding 100 μL of DMSO. The absorbance at 490 nm was detected, and complete medium containing only 0.1% DMSO was defined as 100% and blank well as 0%. The concentration−response relationships were analyzed using Graphpad Prism Software, version 7.0, and IC50 values derived using nonlinear regression analysis fit to a logistic equation.

Data set [2] is described as follows: MTT cytotoxicity assay, Hep3B. It counts as cell-based. The settings on record: human, Hep3B cells, 0.064 to 40 μM. On the procedure:
as §1, §2

Data set [3] is described as follows: MTT cytotoxicity assay, HT-29. Type of data set: cell-based. The conditions noted are these: human, HT-29 cells, HT-29, MTT, 0.064 to 40 μM. On the procedure:
as §1, §2

A short description of data set [4]: MTT cytotoxicity assay, HeLa. It counts as cell-based. The conditions noted are these: human, HeLa cells, 0.064 to 40 μM. On the procedure:
as §1, §2

Data set [5] is described as follows: MTT cytotoxicity assay, OCVAR. Type of data set: cell-based. The settings on record: human, OCVAR cells, 0.064 to 40 μM. On the procedure: as §1, §2
Data set [6] can be described thus: MTT cytotoxicity assay, normal liver cell LO2. It counts as cell-based. The settings on record: human, LO2 normal liver cells, 0.064 to 40 μM. On the procedure: as §1, §2
A further data set deals with PPAR-γ. Details: method as in PMID 30525677. The settings on record: cited from earlier work.
The test system of a further data set is IKKβ. On the set-up: method as in PMID 30095270. The conditions noted are these: cited from earlier work.

For the compound `COCc1ccc(C=O)n1CCCC(=O)O` [Compound 5, 4-[2-formyl-5-(methoxymethyl)-1H-pyrrol-1-yl]butanoic acid], the IC50 at 48 h in data set [1], in data set [2], in data set [3], in data set [4], in data set [5] and in data set [6] was greater than 40 µM throughout.
Turning to alterbrassicicene A, the “agonistic action upon PPAR-γ” value in the data set on PPAR-γ was “strong agonistic action upon PPAR-γ”.
As for `CCCCOC(=O)CCCCNC(C)=O` [Compound 2, butyl 5-acetamidopentanoate], the IC50 at 48 h in data set [1], in data set [2], in data set [3], in data set [4], in data set [5] and in data set [6] was greater than 40 µM throughout.
On to alterbrassicene A, for which the IKKβ inhibitory effect entry in the data set on IKKβ is “potent IKKβ inhibitory effect”.

These data come from PMC10495297, “Three new amide derivatives from the fungus Alternaria brassicicola” (Natural Products and Bioprospecting, 2023).
